Patent publication US11052092B2, “N-{[2-(piperidin-1-yl)phenyl](phenyl)methyl}-2-(3-oxo-3,4-dihydro-2H-1,4-benzoxazin-7-yl)acetamide derivatives and related compounds as ROR-gamma modulators for treating autoimmune diseases” (Genfit, priority 2017, dated 2021)
Structures can show the parent of a compound that is named as a salt.

Assays:
[1] = molecular target: T1, human RORγt (Homo sapiens, UniProt P51449); assay: RORE Luciferase/RORγt transactivation assay; assay type: cell-based; conditions: COS-7 cells transfected with human IL-17 promoter luciferase reporter and RORγt plasmid; 20 h with compound; read-out: IC50, RORγt activity inhibition
T1 construct: the full-length cDNA of human RORγt; expressed in transfected cells; host or cells: COS-7 (monkey kidney)
T1 sequence (P51449 1-497 isoform P51449-2): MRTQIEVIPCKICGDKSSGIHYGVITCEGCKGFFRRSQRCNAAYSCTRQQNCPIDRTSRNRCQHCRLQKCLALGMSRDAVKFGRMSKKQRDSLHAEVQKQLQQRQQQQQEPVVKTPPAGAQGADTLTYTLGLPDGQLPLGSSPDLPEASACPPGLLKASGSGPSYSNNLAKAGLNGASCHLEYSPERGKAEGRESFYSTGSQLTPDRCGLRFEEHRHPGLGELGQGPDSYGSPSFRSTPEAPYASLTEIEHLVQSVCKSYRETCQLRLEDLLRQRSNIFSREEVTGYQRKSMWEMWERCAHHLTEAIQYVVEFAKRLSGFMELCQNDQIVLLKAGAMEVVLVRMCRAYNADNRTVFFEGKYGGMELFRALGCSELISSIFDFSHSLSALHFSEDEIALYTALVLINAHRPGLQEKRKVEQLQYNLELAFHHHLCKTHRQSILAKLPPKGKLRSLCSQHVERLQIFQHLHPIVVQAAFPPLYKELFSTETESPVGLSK
In short: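 Transactivation read-out: luminescence (Steady-Glo, 30 min at room temperature) from COS-7 cells carrying a RORγt expression plasmid plus a 4.3 kb IL-17 promoter luciferase reporter. Compound exposure was in serum-free DMEM with 0.3% DMSO final. Reported values are IC50 (μM) and Emax (%).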

IC50 [1] [nM] | melting point [°C] | Compound
10 to 100 | 102 | Cc1ccc(C(NC(=O)Cc2ccc3c(c2)C(C)C(=O)N3)c2ccc(C)o2)c(N2CCCCC2)c1 (centres unmarked) [Cpd. 49, N-{[4-methyl-2-(piperidin-1-yl)phenyl](5-methylfuran-2-yl)methyl}-2-(3-methyl-2-oxo-2,3-dihydro-1H-indol-5-yl)acetamide]
10 to 100 | 57 | Cc1ccc(C(NC(=O)C2(c3ccc4c(c3)CCN4)CC2)c2ccc(C)o2)c(C)c1 (centres unmarked) [Cpd. 142, 1-(2,3-dihydro-1H-indol-5-yl)-N-[(2,4-dimethylphenyl)(5-methylfuran-2-yl)methyl]cyclopropane-1-carboxamide]
– | 67 | Cc1ccc(C(NC(=O)Cc2ccc3c(ccn3CC3CCOCC3)c2)c2ccc(C)o2)c(N2CCCCC2)c1 (centres unmarked) (as salt: sodium) [Cpd. 113, N-{[4-methyl-2-(piperidin-1-yl)phenyl](5-methylfuran-2-yl)methyl}-2-[1-(oxan-4-ylmethyl)-1H-indol-5-yl]acetamide]
– | 125 | Cc1ccc(C(NC(=O)Cc2ccc3[nH]c(N4CCOCC4)nc3c2)c2ccc(C)o2)c(N2CCCCC2)c1 (centres unmarked) (as salt: HCl) [Cpd. 93, N-{[4-methyl-2-(piperidin-1-yl)phenyl](5-methylfuran-2-yl)methyl}-2-[2-(morpholin-4-yl)-1H-1,3-benzodiazol-5-yl]acetamide]
– | 87 | Cc1ccc(C(NC(=O)C2(c3ccc4c(c3)CS(=O)(=O)N4CC3CCOCC3)CC2)c2ccc(C)o2)c(N2CCCCC2)c1 (centres unmarked) (as salt: HCl) [Cpd. 162, N-{[4-methyl-2-(piperidin-1-yl)phenyl](5-methylfuran-2-yl)methyl}-1-[1-(oxan-4-ylmethyl)-2,2-dioxo-1,3-dihydro-2,1-benzothiazol-5-yl]cyclopropane-1-carboxamide]
– | 62 | Cc1ccc(C(NC(=O)C2(c3ccc4[nH]ccc4c3)CC2)c2ccc(C)o2)c(C)c1 (centres unmarked) (as salt: HCl) [Cpd. 108, N-[(2,4-dimethylphenyl)(5-methylfuran-2-yl)methyl]-1-(1H-indol-5-yl)cyclopropane-1-carboxamide]
– | 57 | COc1ccc(C(NC(=O)Cc2ccc3c(ccn3CCC(=O)OC(C)(C)C)c2)c2ccc(C)o2)c(N2CCCCCC2)c1 (centres unmarked) (as salt: HCl) [Cpd. 110, tert-butyl 3-{5-[({[2-(azepan-1-yl)-4-methoxyphenyl](5-methylfuran-2-yl)methyl}carbamoyl)methyl]-1H-indol-1-yl}propanoate]
– | 72 | CC(=O)N1Cc2ccc(C3(C(=O)NC(c4ccc(C)o4)c4ccc(C)cc4C)CC3)cc2C1 (centres unmarked) (as salt: HCl) [Cpd. 127, 1-(2-acetyl-2,3-dihydro-1H-isoindol-5-yl)-N-[(2,4-dimethylphenyl)(5-methylfuran-2-yl)methyl]cyclopropane-1-carboxamide]
– | 86 | Cc1ccc(C(NC(=O)C2(c3ccc4c(c3)CS(=O)(=O)N4)CC2)c2ccc(Cl)o2)c(C)c1 (centres unmarked) (as salt: HCl) [Cpd. 87, N-[(5-chlorofuran-2-yl)(2,4-dimethylphenyl)methyl]-1-(2,2-dioxo-1,3-dihydro-2,1-benzothiazol-5-yl)cyclopropane-1-carboxamide]
– | 67 | Cc1ccc(C(NC(=O)C2(c3ccc4c(c3)CN(S(C)(=O)=O)C4)CC2)c2ccc(C)o2)c(C)c1 (centres unmarked) (as salt: HCl) [Cpd. 65, N-[(2,4-dimethylphenyl)(5-methylfuran-2-yl)methyl]-1-(2-methanesulfonyl-2,3-dihydro-1H-isoindol-5-yl)cyclopropane-1-carboxamide]
– | 149 | Cc1ccc(C(NC(=O)Cc2ccc3c(ccn3CCC(=O)OC(C)(C)C)c2)c2ccc(C)o2)c(Br)c1 (centres unmarked) (as salt: HCl) [Cpd. 100, tert-butyl 3-[5-({[(2-bromo-4-methylphenyl)(5-methylfuran-2-yl)methyl]carbamoyl}methyl)-1H-indol-1-yl]propanoate]
– | 143 | Cc1ccc(C(NC(=O)Cc2ccc3c(c2)CN(S(C)(=O)=O)C3)c2ccc(Cl)o2)c(N2CCCCC2)c1 (centres unmarked) (as salt: HCl) [Cpd. 79, N-[(5-chlorofuran-2-yl)[4-methyl-2-(piperidin-1-yl)phenyl]methyl]-2-(2-methanesulfonyl-2,3-dihydro-1H-isoindol-5-yl)acetamide]
– | 85 | Cc1ccc(C(NC(=O)C2(c3ccc4c(c3)CS(=O)(=O)N4CC3CCOCC3)CC2)c2ccc(C)o2)c(Br)c1 (centres unmarked) (as salt: HCl) [Cpd. 163, N-[(2-bromo-4-methylphenyl)(5-methylfuran-2-yl)methyl]-1-[1-(oxan-4-ylmethyl)-2,2-dioxo-1,3-dihydro-2,1-benzothiazol-5-yl]cyclopropane-1-carboxamide]
– | 206 | Cc1ccc(C(NC(=O)Cc2ccc3[nH]cc(C(=O)CS(C)(=O)=O)c3c2)c2ccc(C)o2)c(Br)c1 (centres unmarked) (as salt: HCl) [Cpd. 104, N-[(2-bromo-4-methylphenyl)(5-methylfuran-2-yl)methyl]-2-[3-(2-methanesulfonylacetyl)-1H-indol-5-yl]acetamide]
– | 87 | Cc1ccc(C(NC(=O)Cc2ccc3c(c2)CS(=O)(=O)C3)c2ccc(C)o2)c(N2CCCCC2)c1 (centres unmarked) (as salt: HCl) [Cpd. 78, 2-(2,2-dioxo-1,3-dihydro-2-benzothiophen-5-yl)-N-{[4-methyl-2-(piperidin-1-yl)phenyl](5-methylfuran-2-yl)methyl}acetamide]
– | 99 | Cc1ccc(C(NC(=O)Cc2ccc3c(c2)C(=O)C(=O)N3C)c2ccc(C)o2)c(N2CCCCC2)c1 (centres unmarked) (as salt: sodium) [Cpd. 45, 2-(1-methyl-2,3-dioxo-2,3-dihydro-1H-indol-5-yl)-N-{[4-methyl-2-(piperidin-1-yl)phenyl](5-methylfuran-2-yl)methyl}acetamide]
– | 76 | Cc1ccc(C(NC(=O)C2(c3ccc4c(c3)CS(=O)(=O)N4CC3CCOCC3)CC2)c2ccc(C)o2)c(C)c1 (centres unmarked) (as salt: HCl) [Cpd. 157, N-[(2,4-dimethylphenyl)(5-methylfuran-2-yl)methyl]-1-[1-(oxan-4-ylmethyl)-2,2-dioxo-1,3-dihydro-2,1-benzothiazol-5-yl]cyclopropane-1-carboxamide]
– | 105 | Cc1ccc(C(NC(=O)C2(c3ccc4c(c3)OCS(=O)(=O)N4)CC2)c2ccc(C)o2)c(N(C)C)c1 (centres unmarked) (as salt: HCl) [Cpd. 148, N-{[2-(dimethylamino)-4-methylphenyl](5-methylfuran-2-yl)methyl}-1-(2,2-dioxo-1,3-dihydro-4,2,1-benzoxathiazin-6-yl)cyclopropane-1-carboxamide]
– | 84 | Cc1ccc(C(NC(=O)C2(c3ccc4c(c3)CN(S(C)(=O)=O)C4)CC2)c2ccc(C)o2)c(N2CCCC2)c1 (centres unmarked) (as salt: HCl) [Cpd. 73, 1-(2-methanesulfonyl-2,3-dihydro-1H-isoindol-5-yl)-N-{[4-methyl-2-(pyrrolidin-1-yl)phenyl](5-methylfuran-2-yl)methyl}cyclopropane-1-carboxamide]
– | 95 | Cc1ccc(C(NC(=O)C2(c3ccc4[nH]cc(CCO)c4c3)CC2)c2ccc(C)o2)c(N2CCCCC2)c1 (centres unmarked) (as salt: HCl) [Cpd. 66, 1-[3-(2-hydroxyethyl)-1H-indol-5-yl]-N-{[4-methyl-2-(piperidin-1-yl)phenyl](5-methylfuran-2-yl)methyl}cyclopropane-1-carboxamide]
– | 105 | Cc1ccc(C(NC(=O)Cc2ccc3c(c2)CC(=O)N3)c2ccc(Cl)o2)c(N2CCCCC2)c1 (centres unmarked) (as salt: HCl) [Cpd. 83, N-[(5-chlorofuran-2-yl)[4-methyl-2-(piperidin-1-yl)phenyl]methyl]-2-(2-oxo-2,3-dihydro-1H-indol-5-yl)acetamide]
– | 213 | Cc1ccc(C(NC(=O)Cc2ccc3[nH]cc(C(=O)CS(C)(=O)=O)c3c2)c2ccc(C)o2)c(C)c1 (centres unmarked) (as salt: HCl) [Cpd. 107, N-[(2,4-dimethylphenyl)(5-methylfuran-2-yl)methyl]-2-[3-(2-methanesulfonylacetyl)-1H-indol-5-yl]acetamide]
– | 58 | Cc1ccc(C(NC(=O)C2(c3ccc4c(c3)CCC4O)CC2)c2ccc(C)o2)c(C)c1 (centres unmarked) (as salt: sodium) [Cpd. 155, N-[(2,4-dimethylphenyl)(5-methylfuran-2-yl)methyl]-1-(1-hydroxy-2,3-dihydro-1H-inden-5-yl)cyclopropane-1-carboxamide]
– | 92 | Cc1ccc(C(NC(=O)Cc2ccc3c(c2)CS(=O)(=O)N3CC2CCOCC2)c2ccc(C)o2)c(Br)c1 (centres unmarked) (as salt: HCl) [Cpd. 68, N-[(2-bromo-4-methylphenyl)(5-methylfuran-2-yl)methyl]-2-[1-(oxan-4-ylmethyl)-2,2-dioxo-1,3-dihydro-2,1-benzothiazol-5-yl]acetamide]
